Source: publication PMC11568214, “The impact of 9-azaglycophymine and phenylguanidine derivatives on the proliferation of various breast cancer cell lines in vitro and in vivo” (Scientific Reports, 2024)
Several values for one entry are separate records, joined by “and”; a condition that tells them apart may be missing. Identical values can stand only once. Entries after “also recorded” stand apart in the source; their conditions may differ.

Columns and labels:
MCF-7 = test: Pan-caspase activation, ApoStat staining, flow cytometry; assay type: cell-based, human; set-up: key: ↑: induction; ↓: inhibition; ↔: no effect; conditions: MCF-7, IC50 for 72 h
Experimental: (§1) Cells were seeded in 6-well plates and incubated for 24 h under standard culture conditions. […] For the analyses of pan-caspase activation, the cell suspension was centrifuged for 3 min at 800 rpm, and the cell pellet was stained with 100 µL of ApoStat working solution (1 µL of ApoStat and 5% (v/v) FCS in 100 µL of PBS). Cells were incubated for 30 min under standard culture conditions. The cell suspension was centrifuged for 3 min at 800 rpm, and the cell pellet was washed with 1 mL of fresh PBS. Finally, all samples were analyzed by using flow cytometry (FACSAria III, BD Biosciences, New Jersey, USA).

MDA-MB-468 = test: as above; assay type: cell-based, human; set-up: key: ↑: induction; ↓: inhibition; ↔: no effect; conditions: MDA-MB-468, IC50 for 72 h
Experimental: as §1

BT-474 = test: as above; assay type: cell-based, human; set-up: key: ↑: induction; ↓: inhibition; ↔: no effect; conditions: BT-474, IC50 for 72 h
Experimental: as §1

HCC1937 = test: as above; assay type: cell-based, human; set-up: key: ↑: induction; ↓: inhibition; ↔: no effect; conditions: HCC1937, IC50 for 72 h
Experimental: as §1

4T1 [1] = test: as above; assay type: cell-based, mouse; set-up: key: ↑: induction; ↓: inhibition; ↔: no effect; conditions: 4T1, IC50 for 72 h
Experimental: as §1

4T1 [2] = test: Autophagy induction, acridine orange staining, flow cytometry; assay type: cell-based, mouse; set-up: key: ↑: induction; ↓: inhibition; ↔: no effect; conditions: 4T1, IC50 for 72 h
Experimental: Cells were seeded in 6-well plates and incubated for 24 h under standard culture conditions. […] For the analyses of autophagy induction, the cell suspension was centrifuged for 3 min at 800 rpm, and the cell pellet was stained with 1 mL of AO working solution (1 µg/mL of AO in growth medium). Cells were incubated for 15 min under standard culture conditions. The cell suspension was centrifuged for 3 min at 800 rpm, and the cell pellet was washed with 1 mL of fresh PBS. Finally, all samples were analyzed by using flow cytometry (FACSAria III, BD Biosciences, New Jersey, USA).

[3] = Urine analysis with Multistix urine test stripes in the 4T1 in vivo study; set-up: species or system BALB/c mice; key to Glucose (urine) / Blood (urine): -: marker was not detectable in the respective urine sample; +: marker was detected
Experimental: On day 6, the mice were assigned to the study groups using a stratified randomization approach, ensuring that the mean tumor volumes were as similar as possible across all groups. […] The vehicle was 4% (v/v) DMSO in PBS, and the administration route was intraperitoneal (i.p.). The animals were treated daily on days 6–10 (starting from the day when tumors became palpable), 13–17 and day 20. Animals were visually examined daily, and urine samples were collected on the first and last day of treatment and analyzed by Multistix urine test stripes (Siemens Healthineers, Erlangen, Germany). On day 21 of the experiment, the mice were sacrificed using cervical dislocation. Following the sacrifice, the tumor diameters were measured using a caliper. The tumor volume (V) was then calculated using the formula V = L*W^2*0.52[36], where L represents the longest diameter and W the shortest diameter of the tumor.

[4] = Histopathology of tumors, kidneys, livers and spleens in the 4T1 in vivo study; set-up: species or system BALB/c mice
Excerpt: Tissue samples of tumors, kidneys, livers and spleens were fixed in 4% (v/v) formalin. After fixation, tissues were embedded in paraffin blocks, and 4 µm thick sections were obtained, mounted on glass slides, stained with Hematoxylin Eosin, and analyzed by using an Olympus BX43 microscope (Olympus, Tokyo, Japan). All slides were scanned with a Leica Biosystems Aperio AT2 with ×400 magnification (n = 3 per group). Virtual slides generated from Leica Aperio AT2 (Wetzlar, Germany) were additionally analyzed with Aperio ImageScope (v12.4.3.5008) and with FIJI-ImageJ software.

O=c1[nH]c(Nc2ccc([N+](=O)[O-])cc2)nc2ccccc12 [Compound 19, 4′-nitro-9-aza-glycophymine]
Pan-caspases (MCF-7): ↔ | Pan-caspases (MDA-MB-468): ↔ | Pan-caspases (BT-474): ↑ | Pan-caspases (HCC1937): ↑ | Pan-caspases (4T1 [1]): ↑ | Autophagy (4T1 [2]): ↔ | Bilirubin (urine) ([3]; 5 mg/kg, Day 6, three mice): small | Blood (urine) ([3]; 5 mg/kg, Day 6, three mice): - | Ketones (urine) ([3]; 5 mg/kg, Day 6, three mice): 10 mg/dL | Leucocytes (urine) ([3]; 5 mg/kg, Day 6, three mice): 25 cells/µL | Specific gravity (urine) ([3]; 5 mg/kg, Day 6, three mice): 1.025 and 1.000 and 1.030 | pH (urine) ([3]; 5 mg/kg, Day 6, three mice): 6 and 5 | Bilirubin (urine) ([3]; 5 mg/kg, Day 20, three mice): small | Blood (urine) ([3]; 5 mg/kg, Day 20, three mice): - | Glucose (urine) ([3]; 5 mg/kg, Day 20, three mice): - | Ketones (urine) ([3]; 5 mg/kg, Day 20, three mice): 10 mg/dL | Leucocytes (urine) ([3]; 5 mg/kg, Day 20, three mice): 25 cells/µL | Proteins (urine) ([3]; 5 mg/kg, Day 20, three mice): 100 mg/dL | Specific gravity (urine) ([3]; 5 mg/kg, Day 20, three mice): 1.030 and 1.025 | pH (urine) ([3]; 5 mg/kg, Day 20, three mice): 6 | Bilirubin (urine) ([3]; 20 mg/kg, Day 6, three mice): small | Blood (urine) ([3]; 20 mg/kg, Day 6, three mice): - | Ketones (urine) ([3]; 20 mg/kg, Day 6, three mice): 10 mg/dL | Leucocytes (urine) ([3]; 20 mg/kg, Day 6, three mice): 25 cells/µL | Proteins (urine) ([3]; 20 mg/kg, Day 6, three mice): 30 mg/dL | Specific gravity (urine) ([3]; 20 mg/kg, Day 6, three mice): 1.025 and 1.030 | Uroglobin (urine) ([3]; 20 mg/kg, Day 6, three mice): 4 mg/dL | pH (urine) ([3]; 20 mg/kg, Day 6, three mice): 6 and 5 | Bilirubin (urine) ([3]; 20 mg/kg, Day 20, three mice): small; also recorded: moderate | Blood (urine) ([3]; 20 mg/kg, Day 20, three mice): - | Ketones (urine) ([3]; 20 mg/kg, Day 20, three mice): 10 mg/dL and 5 mg/dL | Specific gravity (urine) ([3]; 20 mg/kg, Day 20, three mice): 1.030 and 1.025 | Uroglobin (urine) ([3]; 20 mg/kg, Day 20, three mice): 4 mg/dL and 8 mg/dL | pH (urine) ([3]; 20 mg/kg, Day 20, three mice): 5 and 6 | morphological changes in kidney, spleen and liver tissue ([4]; 5 and 20 mg/kg i.p., day 21, compared to control group): did not cause significant morphological changes | extent of tumor necrosis ([4]; treated animals in comparison to the control group, day 21): a higher extent of necrosis was found in treated animals
